{"source": "patent US12286402B2", "about": "“Compounds and their use for the treatment of alpha1-antitrypsin deficiency” (CENTESSA PHARMACEUTICALS (UK) LIMITED, priority 2019, dated 2025)"}
{"target": "T1, human Z A1AT (Homo sapiens, UniProt P01009, E366K)", "T1 construct": "expressed in transfected cells; host or cells: HEK-Z cells (human embryonic kidney cell line stably transfected with the human Z A1AT gene)", "T1 sequence (P01009 25-418 E366K)": "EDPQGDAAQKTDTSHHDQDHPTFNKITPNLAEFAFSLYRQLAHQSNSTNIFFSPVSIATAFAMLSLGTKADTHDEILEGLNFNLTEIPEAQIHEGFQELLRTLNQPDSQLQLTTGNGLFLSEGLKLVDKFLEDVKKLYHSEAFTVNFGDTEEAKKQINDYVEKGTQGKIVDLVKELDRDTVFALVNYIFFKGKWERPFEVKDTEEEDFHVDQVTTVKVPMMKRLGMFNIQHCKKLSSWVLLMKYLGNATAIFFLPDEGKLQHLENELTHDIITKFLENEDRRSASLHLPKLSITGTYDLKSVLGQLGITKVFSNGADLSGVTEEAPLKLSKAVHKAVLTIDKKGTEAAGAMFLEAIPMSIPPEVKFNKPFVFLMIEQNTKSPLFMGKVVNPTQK", "experiment": "A1AT cell secretion assay using HEK-Z cells (A1AT ELISA of supernatants)", "format": "cell-based", "details": "48 h, supernatant A1AT by ELISA", "description": "HEK-Z cells, a human embryonic kidney cell line stably transfected with the human Z A1AT gene, were plated into 96 well plates (3.0×10^5 cells/ml with 200 μl of media/well) overnight at 37° C. in a humidified atmosphere containing 5% CO2. Following incubation cells were washed with 200 μl serum-free media three times and media was replaced with treatments in quadruplicate using serum free media containing either vehicle, 10 μM suberanilohydroxamic acid (SAHA) or a compound of the invention (at concentrations of 10, 33, 100 and 333 nM) for 48 h in a 37° C. incubator in a final volume of 200 μl. At the end of the incubation step the supernatants were removed from the wells, centrifuged at 1000×g at 4° C. for 10 min and were assayed for human A1AT levels by ELISA (Human Serpin A1/α1-antitrypsin duo set ELISA, R& D Systems, DY1268) per manufacturer's instructions.\nBriefly, a 96 well plate was coated with human A1AT capture antibody overnight at room temperature (1:180 dilution from stock, 100 μl final volume/well). The capture antibody was then removed and wells washed three times with 300 μl wash buffer (0.05% Tween 20 in PBS) and then 200 μl reagent diluent ([…]) was incubated in each well for 1 h at room temperature. Diluted samples, standards (125, 250, 500, 1000, 2000, 4000 and 8000 pg/ml A1AT) or blanks were then added to each well in duplicate and the plates were covered with a plate sealer and left at room temperature for 2 h. At the end of the sample incubation step, samples were removed and all wells washed as previously and 100 μl detection antibody (1:180 dilution from stock) was added to each well and incubated for a further 2 h at room temperature. Following incubation with detection antibody, supernatant was removed and wells were washed as previously and 100 μl streptavidin-HRP solution (1:200 dilution from stock) was added to each well for 20 min in the dark. After which, 50 μl stop solution (2M H2SO4) was added and optical density (OD) of each well was read at 450 nm with 570 nm blank subtracted from each well using a microplate reader. A 4 parameter logistic curve was constructed using GraphPad Prism 7 and A1AT concentrations were determined in each sample by interpolation from a standard curve and multiplying by the appropriate dilution factor.", "units": {"Median A1AT % increase over vehicle at 300 nM": "%"}}
{"smiles": "CN(CC(F)(F)F)C(=O)c1ccc(Cn2ccccc2=O)cc1", "note": "[Example 5, N-methyl-4-((2-oxopyridin-1(2H)-yl)methyl)-N-(2,2,2-trifluoroethyl)benzamide]", "Median A1AT % increase over vehicle at 300 nM": 129}
{"smiles": "CN(C)C(=O)c1ccc(Cn2ccccc2=O)cc1", "note": "[Example 1, N,N-dimethyl-4-((2-oxopyridin-1(2H)-yl)methyl)benzamide]", "Median A1AT % increase over vehicle at 300 nM": 125}
{"smiles": "CCN(C)C(=O)c1ccc(Cn2ccccc2=O)cc1", "note": "[Example 2, N-ethyl-N-methyl-4-((2-oxopyridin-1(2H)-yl)methyl)benzamide]", "Median A1AT % increase over vehicle at 300 nM": 147}
{"smiles": "CN(Cc1ccccc1)C(=O)c1ccc(Cn2ccccc2=O)cc1", "note": "[Example 4, N-benzyl-N-methyl-4-((2-oxopyridin-1(2H)-yl)methyl)benzamide]", "Median A1AT % increase over vehicle at 300 nM": 142}
{"smiles": "CC(C)N(C)C(=O)c1ccc(Cn2ccccc2=O)cc1", "note": "[Example 3, N-isopropyl-N-methyl-4-((2-oxopyridin-1(2H)-yl)methyl)benzamide]", "Median A1AT % increase over vehicle at 300 nM": 134}
